# Experimental data reported in the supplement of paper PMC10307832.
# Columns and labels:
# Experiment in all cases: relative viability (nuclei count vs DMSO), 5 days (fraction); higher = more cells survive
# Fedratinib + Phenformin = compound: Cc1cnc(Nc2ccc(OCCN3CCCC3)cc2)nc1Nc1cccc(S(=O)(=O)NC(C)(C)C)c1 [Fedratinib] + N=C(N)NC(=N)NCCc1ccccc1 [Phenformin] (partner 250 µM)
# Method in brief: (§1)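 Relative viability was taken as the ratio of nuclei in treated wells to nuclei in vehicle wells. Lung cancer cell lines in 1536-well plates received compounds by pin tool one day after seeding, either one drug alone or a fixed anchor-drug dose plus five library-drug doses (not always all listed) in √10 steps. Nuclei were counted on 4× images after 5 days of treatment, and values are medians of duplicate plates.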
# GW-2580 + Phenformin = compound: COC1=CC=C(C=C1)COC2=C(C=C(C=C2)CC3=CN=C(N=C3N)N)OC [GW-2580] + N=C(N)NC(=N)NCCc1ccccc1 [Phenformin] (partner 250 µM)
# Method in brief: as §1
# Fedratinib = compound: Cc1cnc(Nc2ccc(OCCN3CCCC3)cc2)nc1Nc1cccc(S(=O)(=O)NC(C)(C)C)c1 [Fedratinib]
# Method in brief: (§2)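 On vehicle-anchored 1536-well plates, lung cancer cell lines held overnight at 37 °C were pinned with five library-drug doses (not always all listed) spaced by √10. With no medium change over 5 days, they were then fixed, permeabilised and Hoechst-stained in one step and imaged at 4×. MetaXpress counted nuclei, and viability is the median across plates of treated-well over vehicle-well nuclei. Acceptance needed control CV below 25% and at least one doubling.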
# GW-2580 = compound: COC1=CC=C(C=C1)COC2=C(C=C(C=C2)CC3=CN=C(N=C3N)N)OC [GW-2580]
# Method in brief: as §2
# GW-2580 + Navitoclax = compound: COC1=CC=C(C=C1)COC2=C(C=C(C=C2)CC3=CN=C(N=C3N)N)OC [GW-2580] + CC1(C)CCC(c2ccc(Cl)cc2)=C(CN2CCN(c3ccc(C(=O)NS(=O)(=O)c4ccc(N[C@H](CCN5CCOCC5)CSc5ccccc5)c(S(=O)(=O)C(F)(F)F)c4)cc3)CC2)C1 [Navitoclax] (partner 0.5 µM)
# Method in brief: as §1
Cell Line,relative viability (Fedratinib + Phenformin; first compound 0.1 µM),relative viability (Fedratinib + Phenformin; first compound 0.3162 µM),relative viability (Fedratinib + Phenformin; first compound 1 µM),relative viability (GW-2580 + Phenformin; first compound 0.08 µM),relative viability (GW-2580 + Phenformin; first compound 0.8 µM),relative viability (GW-2580 + Phenformin; first compound 2.53 µM),relative viability (GW-2580 + Phenformin; first compound 8 µM),relative viability (Fedratinib; 0.1 µM),relative viability (Fedratinib; 0.3162 µM),relative viability (Fedratinib; 1 µM),relative viability (GW-2580; 0.08 µM),relative viability (GW-2580; 0.8 µM),relative viability (GW-2580; 2.53 µM),relative viability (GW-2580; 8 µM),relative viability (GW-2580 + Navitoclax; first compound 0.08 µM),relative viability (GW-2580 + Navitoclax; first compound 0.8 µM),relative viability (GW-2580 + Navitoclax; first compound 2.53 µM),relative viability (GW-2580 + Navitoclax; first compound 8 µM)
NCI-H2342,0.674,0.537,0.634,0.57,0.725,0.509,0.567,1.08,1.06,0.994,0.921,1.05,0.775,0.97,–,–,–,–
HCC-15,0.43,0.464,0.399,0.537,0.486,0.426,0.515,0.869,0.972,0.911,1.08,1.19,0.98,1.02,0.751,0.79,0.656,0.712
A-427,0.26,0.298,0.147,0.407,0.258,0.303,0.269,0.928,1.02,0.555,1.05,1.11,0.86,0.881,1.02,1.1,0.838,0.856
NCI-H2228,0.226,0.252,0.358,0.395,0.371,0.358,0.318,0.884,0.785,0.723,1.18,1.16,0.921,0.882,1.01,0.84,0.869,0.723
NCI-H1734,0.382,0.385,0.353,0.35,0.374,0.38,0.359,1,0.97,0.853,0.987,0.986,0.912,0.914,1.04,0.935,0.857,0.76
PC-14,0.427,0.676,0.386,0.358,0.82,0.494,0.615,0.986,1.09,0.906,1.07,1.19,0.966,0.969,1.07,1.05,0.905,1.05
NCI-H1915,0.374,0.361,0.298,0.392,0.368,0.362,0.38,1.03,0.97,0.658,1.04,1.02,1.07,0.969,0.858,0.898,0.778,0.837
NCI-H1666,0.57,0.575,0.522,0.581,0.607,0.604,0.554,0.859,1.04,0.982,0.976,1.38,0.937,0.97,0.946,1.1,0.856,0.69
HCC-366,0.482,0.673,0.642,0.682,0.573,0.595,0.546,0.997,1.02,0.962,0.997,1.06,1.11,1.07,1.27,1.17,1.13,1.11
SK-MES-1,0.511,0.644,0.532,0.748,0.608,0.515,0.528,0.977,1.02,0.911,1.1,1.08,0.96,0.984,1.4,1.18,1.1,1.33
SW 1573,0.32,0.391,0.369,0.334,0.383,0.401,0.4,0.987,0.998,0.897,1.05,0.994,0.868,0.946,1,1.04,0.869,0.929
NCI-H661,0.269,0.287,0.304,0.269,0.282,0.282,0.271,0.876,1.06,0.914,1.03,1.04,0.951,0.814,–,–,–,–
PC-3 [JPC-3],0.508,0.466,0.482,0.472,0.489,0.489,0.464,0.987,1.03,0.953,1.12,1.14,1.09,0.964,0.807,0.854,0.72,0.779
NCI-H1623,0.474,0.59,0.551,0.566,0.587,0.463,0.566,1.04,0.987,0.935,0.947,0.998,0.828,0.96,–,–,–,–
Calu-6,–,–,–,–,–,–,–,1.03,1.04,0.971,1.12,1.1,0.96,1.04,0.932,0.868,0.782,0.877
LC-2-ad,0.595,0.624,0.528,0.595,0.674,0.634,0.682,0.983,1.03,0.588,1.04,1.14,1.01,0.988,0.544,0.52,0.357,0.498
